From patent publication US5521175A, “Benzodiazepine derivatives” (Merck Sharp & Dohme Ltd., priority 1992, dated 1996)
Where a name gives a salt, the structure may show the parent alone. Read-outs that look alike come from different tables or passages of the source.

Assays:
[1] = target: T1, CCK-B receptor (Cavia porcellus, UniProt H0VZC5); assay: displacement of ^125 I-CCK from guinea pig brain (CCK-B receptor binding); details: guinoa pig brain (CCK-B)
T1 construct: guinoa pig brain (CCK-B); from tissue; host or cells: guinea pig brain
T1 sequence (H0VZC5 1-426): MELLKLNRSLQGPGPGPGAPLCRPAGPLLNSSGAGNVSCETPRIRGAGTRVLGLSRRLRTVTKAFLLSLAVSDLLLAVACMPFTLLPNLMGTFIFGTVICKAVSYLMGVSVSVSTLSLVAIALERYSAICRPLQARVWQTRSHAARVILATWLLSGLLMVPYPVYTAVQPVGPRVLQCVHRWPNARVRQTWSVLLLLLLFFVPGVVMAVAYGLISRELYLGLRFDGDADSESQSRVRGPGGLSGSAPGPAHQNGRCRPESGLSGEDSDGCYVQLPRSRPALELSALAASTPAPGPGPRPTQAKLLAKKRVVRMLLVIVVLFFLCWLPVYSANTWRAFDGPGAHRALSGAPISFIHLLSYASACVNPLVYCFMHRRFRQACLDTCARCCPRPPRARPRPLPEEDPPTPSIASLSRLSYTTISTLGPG
Method: (§1) The CCK-A and CCK-B antagonising activity of the compounds described herein was evaluated using the assays described in published European patent application no. […] The method essentially involves determining the concentration of the test compound required to displace 50% of the specific ^125 I--CCK from rat pancreas (CCK-A) or guinoa pig brain (CCK-B).

[2] = target: T2, CCK-A receptor (Rattus norvegicus, UniProt P30551); assay: displacement of ^125 I-CCK from rat pancreas (CCK-A receptor binding)
T2 sequence (P30551 1-444): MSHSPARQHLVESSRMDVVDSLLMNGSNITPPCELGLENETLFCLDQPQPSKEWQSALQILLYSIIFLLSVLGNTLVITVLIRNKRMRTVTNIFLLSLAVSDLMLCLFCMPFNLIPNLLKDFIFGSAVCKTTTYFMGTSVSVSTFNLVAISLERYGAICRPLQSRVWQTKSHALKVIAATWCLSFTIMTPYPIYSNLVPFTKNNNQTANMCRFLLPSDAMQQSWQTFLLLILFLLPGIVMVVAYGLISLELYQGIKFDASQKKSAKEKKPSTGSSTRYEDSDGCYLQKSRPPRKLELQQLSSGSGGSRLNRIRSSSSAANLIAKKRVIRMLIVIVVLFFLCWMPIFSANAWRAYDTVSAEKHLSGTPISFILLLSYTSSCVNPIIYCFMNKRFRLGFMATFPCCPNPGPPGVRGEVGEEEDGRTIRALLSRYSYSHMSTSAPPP
Method: as §1

[3] = read-out: CCK receptor binding IC50, ^125 I-CCK Brain
[4] = ^125 I-CCK, rat pancreas (CCK-A), read-out: CCK receptor binding IC50, ^125 I-CCK Pancreas

Compound | IC50 [1, 3] | IC50 [2, 4] | IC50 ([1]; CCK receptor binding IC50, ^125 I-CCK Brain) | IC50 [2]
CCCN1C(=O)C(NC(=O)Nc2cccc(C)c2)N=C(C2CCCCN2)c2ccccc21 (single isomer, unassigned) [Example 1, N-[2,3-Dihydro-2-oxo-5-(piperidin-2-yl)-1-(1-propyl)-1H-1,4-benzodiazepin-3-yl]-N'-[3-methylphenyl]urea hydrochloride] | 41.8 nM | > 3000 nM | – | –
CCCN1C(=O)C(NC(=O)Nc2cccc(C)c2)N=C(C2CCCCN2)c2ccccc21 (single isomer, unassigned) [Example 2, N-[2,3-Dihydro-2-oxo-5-(piperidin-2-yl)-1-(1-propyl)-1H-1,4,benzodiazepin-3-yl]-N'-[3-methylphenylurea hydrochloride] | 36.4 nM | > 3000 nM | – | –
CCCN1C(=O)C(NC(=O)Nc2cccc(C)c2)N=C(C2CCCCN2C)c2ccccc21 (single isomer, unassigned) [Example 3, N-[2,3-Dihydro-5-(1-methylpiperidin-2-yl)-2-oxo-1-(1propyl)-1H-1,4-benzodiazepin-3-yl]-N'-[3-methylphenyl]urea hydrochloride] | – | – | 53.6 nM | –
CCCN1C(=O)C(NC(=O)Nc2cccc(C)c2)N=C(C2CCC(C)(C)CCN2C)c2ccccc21 (single isomer, unassigned) [Example 5, N-[2,3-Dihydro-5-(2,3,4,5,6-hexahydro-1,5,5,-trimethyl-1H-azepin-2-yl)-2-oxo-1-(1-propyl)-1H-1,4-benzodiazepin-3-yl]-N'-[3-methylphenyl]urea hydrochloride] | 25.5 nM | – | – | –
Cc1cccc(NC(=O)NC2N=C(C3CCC(C)(C)CCN3)c3ccccc3N(C)C2=O)c1 (single isomer, unassigned) [Example 6, N-[2,3-Dihydro-5-(5,5-dimethyl-2,3,4,5,6-hexahydro-1H-azepin-2-yl)-1-methyl-2-oxo-1H-1,4-benzodiazepin-3-yl]-N'-[3-methylphenyl]urea hydrochloride] | 12 nM | – | – | –
CCCN1C(=O)C(NC(=O)Nc2ccc3c(c2)CCC3)N=C(C2CC(C)(C)CCN2)c2ccccc21 (single isomer, unassigned) [Example 12, N-[2,3-Dihydro-5-(4,4-dimethylpiperidin-2-yl)-2-oxo-1-(1-propyl)-1H, 1,4-benzodiazepin-3-yl-N'-[5-indanyl]urea hydrochloride] | – | – | – | 3220 nM

More lines, main results first:

IC50 [1, 3] | IC50 [2, 4] | Compound | IC50 ([1]; CCK receptor binding IC50, ^125 I-CCK Brain) | IC50 [2]
2.37 nM | 6490 nM | CN1C(=O)C(NC(=O)Nc2ccc3c(c2)CCC3)N=C(C2CCC(C)(C)CCN2)c2ccccc21 (single isomer, unassigned) [Example 7, N-[2,3-Dihydro-5-(5,5-dimethyl-2,3,4,5,6-hexahydro-1H-azepin-2-yl)-1-methyl-2-oxo-1H-1,4-benzodiazepin-3-yl]-N'-[5-indanyl]urea hydrochloride] | – | –
1.47 nM | – | CCCN1C(=O)C(NC(=O)Nc2cccc(C)c2)N=C(C2CC(C)(C)CCN2)c2ccccc21 (single isomer, unassigned) [Example 8, N-[2,3-Dihydro-5-(4,4-dimethylpiperidin-2-yl)-2-oxo-1-(1-propyl)-1H-1,4-benzodiazepin-3-yl]-N'-[3-methylphenyl]urea hydrochloride] | – | –
290 nM | 2670 nM | Cc1cccc(NC(=O)NC2N=C(C3CCNCC3)c3ccccc3N(CC(C)C)C2=O)c1 (centres unmarked) [Example 9, N-[2,3-Dihydro-1-(2-methylpropyl)-2-oxo-5-(piperidin-4-yl)-1H-1,4-benzodiazepin-3-yl]-N'-[3-methylpheny]urea trifluoroacetic acid salt] | – | –
240 nM | 2930 nM | Cc1cccc(NC(=O)NC2N=C(C3CCN(C)CC3)c3ccccc3N(CC(C)C)C2=O)c1 (centres unmarked) [Example 10, N-[2,3-Dihydro-5-(N-methylpiperidin-4-yl)-1-(2-methylpropyl)-2-oxo-1H-1,4-benzodiazepin-3-yl]-N'-[3-methylphenyl]urea hydrochloric acid salt] | – | –
55 nM | > 3000 nM | CC(C)CN1C(=O)C(NC(=O)Nc2cccc(-c3nnn[nH]3)c2)N=C(C2CCNCC2)c2ccccc21 (centres unmarked) [Example 11, N-[2,3-Dihydro-1-(2-methylpropyl)-2-oxo-5-(piperidin-4-yl)-1H-1,4-benzodiazepin-3-yl]-N'-[3-(tetrazol-5-yl)phenyl]urea, trifluoroacetic acid salt] | – | –
